The values that follow come from patent publication US10464882B2, “Y-type discrete polyethylene glycol derivative and preparation method thereof” (JENKEM TECHNOLOGY CO., LTD. (BEIJING), priority 2015, dated 2019).

Like-named read-outs stand apart in the source and are kept apart here. Where only a bound is given, the exact number is not on record here.

Data set [1] is described as follows: Comparison test of dispersion of cholesterol and cholesterol derivatives in water. Format: physicochemical. The following applies: 20 mg in 50 mL water, 20° C. water bath, shaken vigorously every 5 min for 30 min.
Data set [2] is described as follows: Comparison test of solubility of cholesterol derivatives in water (Chinese pharmacopoeia method). Type of data set: physicochemical. Here is the method:
The solubility of cholesterol derivatives in water was determined according to the method in “Chinese pharmacopoeia”: […] After 30 min, 1.5 mL water was further added, and the resulting mixture was placed in a 20° C. water bath with the same procedure for dissolution. Until 9 mL water was added, the solution was clear. […] After 30 min, 5 mL water was further added, and the resulting mixture was placed in a 20° C. water bath with the same procedure for dissolution until 25 mL water was added. 5 mL solution was taken from the dilute solution, the same procedure was carried out until 10 mL water was added, and the solution was clear.

In the case of `COCCOCCOCCOCCOCCOCCOCCOC(=O)O[C@H]1CC[C@@]2(C)C(=CC[C@H]3[C@@H]4CC[C@H]([C@H](C)CCCC(C)C)[C@@]4(C)CC[C@@H]32)C1` [cholesterol derivative of mEG7-OH], the “dispersion in water, naked eye observation” value in data set [1] is given as “white emulsion”. Also, in data set [2], the solubility in water is given as 4.61 mg/100 g.

For `CC(C)CCC[C@@H](C)[C@H]1CC[C@H]2[C@@H]3CC=C4C[C@@H](O)CC[C@]4(C)[C@H]3CC[C@]12C` [cholesterol], the “dispersion in water, naked eye observation” value in data set [1] is listed as “completely insoluble”. Moreover, the solubility in water in data set [2] (water, 20° C. water bath, shaken every 5 min for 30 min) is given as below 0.2 mg/100 g.
